The source of these data is patent US10342804B2, “Steroid compound for use in the treatment of hepatic encephalopathy” (Umecrine Cognition AB, priority 2014, dated 2019).

As usually defined, the inhibition is the share of the control response that was lost under treatment.

One test has as its system hyperammonemic rats. The test is described as follows: Spatial memory in the Morris water maze, chronic hyperammonemia model (Example 3). The settings on record: 20 mg/kg s.c. once daily, 4th-5th week of treatment. The test is classed as in vivo, rat. The source says: In this study an animal model of chronic hyperammonemia was used that reproduces many of the cognitive and motor alterations present in hepatic encephalopathy. Rats were fed with ammonia in their food and after two weeks with ammonia enriched food they developed symptoms of hepatic encephalopathy. The beam walking test was made during the 3rd and 4th week of 3α-ethynyl-3β-hydroxyandrostan-17-one oxime treatment while the Morris Water maze test was made during 4th-5th week of 3α-ethynyl-3β-hydroxyandrostan-17-one oxime treatment and the Radial maze test was made during 6th-7th week of 3α-ethynyl-3β-hydroxyandrostan-17-one oxime treatment. […]
The test was carried out as follows; the first day was the pre-training day, rats were put in the water two times for 30 s only to adapt to water. […] The time, speed and path needed to find the hidden platform was recorded by a video tracking system provided by Viewpoint Company (Viewpoint 2.5, Champagne au Mont D′ Or, France) and used as a measure of learning of the task. After 15 training trial, the platform was removed from the pool, the rats were allowed to swim for 90 s in the pool and the time spent in the quadrant where the platform was positioned during training was recorded.

The target of test [1] is T1, human α1β2γ2L GABAA receptors (Homo sapiens, UniProt P14867+P47870).
T1 construct: expressed in transfected cells; host or cells: HEK-293, permanently transfected
Kind of test: Whole-cell voltage-clamp electrophysiology, HEK-293 cells expressing α1β2γ2L GABAA receptors. The test is classed as cell-based. To be noted: for GAMSA effect: α1β2γ2L, 1 μM GAMSA, 30 μM GABA, AUC. On the procedure:
For electrophysiology measurements the Dynaflow® system with the Resolve chip was used (Cellectricon, Göteborg, Sweden). HEK-293 cells were permanently transfected with vectors including the human CMV promoter for constitutive expression of the human α5, β3, and γ2L GABAA receptor subunits (α5β3γ2L) or the human α1, β2, and γ2L GABAA receptor subunits (α1β2γ2L). The cell lines used were selected for good reactivity to GABA and to THDOC. Before measurements cells were incubated for 15 min at 37° C. in 95% air+5% CO2 in extracellular solution (EC) containing the following: 137 mM NaCl, 5.0 mM KCl, 1.0 mM CaCl2, 1.2 mM MgCl2, 10 mM HEPES, and 10 mM glucose, 0.1% DMSO pH 7.4. Thereafter, detached cells were added to the EC solution in the Dynaflow chip bath.
Whole-cell voltage-clamp recordings were made at room temperature (21-23° C., −17 mV with compensation for liquid junction potential as in Haage et al., 2002; Neher, 1992). Command pulses were generate and data collected by PClamp 9.0 software, DigiData 1322A converter, and AxonPatch 200B (Axon Instruments, Foster City, Calif.). Patch electrodes (2-6 MΩ) were filled with intracellular solution (IC) including: 140 mM Cs-gluconate, 3.0 mM NaCl, 1.2 mM MgCl2, 10 mM HEPES, 1.0 mM EGTA, 2 mM Mg-ATP, 0.1% DMSO, pH 7.2.
THDOC and 3α-ethynyl-3β-hydroxyandrostan-17-one oxime were dissolved in dimethyl sulfoxide (DMSO) and thereafter diluted with EC solution to include 0.1% DMSO.
Different protocols were used for different electrophysiology measurements. As α1β2γ2L-GABAA receptors in vivo are present within the synapse a condition resembling that situation, a short application (40 ms) of a high GABA concentration (30 μM), was used. Contrary, α5β3γ2L-GABAA receptors are present extrasynaptically, thus the conditions used were long exposures (6 s) to a low GABA concentration (0.3 μM). The EC75 concentration of THDOC was used, i.e. 100 nM with studies of α1β2γ2L and 200 nM when α5β3γ2L expressing cells were evaluated. With both cell types a pre-exposure with THDOC or THDOC plus 3α-ethynyl-3β-hydroxyandrostan-17-one oxime was used before application of GABA.
Steroid effects in presence of GABA were normalized to controls in order to avoid the effects of inter- and intracellular variation in the measured parameters, each cell was used as its own control and the area under the curve (AUC) was analyzed.

T1 sequence (P14867 28-456): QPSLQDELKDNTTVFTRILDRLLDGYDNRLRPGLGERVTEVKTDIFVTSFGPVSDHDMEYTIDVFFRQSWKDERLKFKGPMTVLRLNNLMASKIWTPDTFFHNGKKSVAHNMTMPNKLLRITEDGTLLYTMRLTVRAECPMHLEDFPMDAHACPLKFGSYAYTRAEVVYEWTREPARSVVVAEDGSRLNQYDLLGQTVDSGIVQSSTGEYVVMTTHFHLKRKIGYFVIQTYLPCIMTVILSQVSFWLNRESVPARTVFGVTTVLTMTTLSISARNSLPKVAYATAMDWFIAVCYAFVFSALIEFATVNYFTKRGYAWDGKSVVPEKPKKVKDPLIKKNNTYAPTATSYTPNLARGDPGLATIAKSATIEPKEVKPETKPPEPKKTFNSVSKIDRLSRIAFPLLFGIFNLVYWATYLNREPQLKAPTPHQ
T1 sequence (P47870 25-512 limits assumed): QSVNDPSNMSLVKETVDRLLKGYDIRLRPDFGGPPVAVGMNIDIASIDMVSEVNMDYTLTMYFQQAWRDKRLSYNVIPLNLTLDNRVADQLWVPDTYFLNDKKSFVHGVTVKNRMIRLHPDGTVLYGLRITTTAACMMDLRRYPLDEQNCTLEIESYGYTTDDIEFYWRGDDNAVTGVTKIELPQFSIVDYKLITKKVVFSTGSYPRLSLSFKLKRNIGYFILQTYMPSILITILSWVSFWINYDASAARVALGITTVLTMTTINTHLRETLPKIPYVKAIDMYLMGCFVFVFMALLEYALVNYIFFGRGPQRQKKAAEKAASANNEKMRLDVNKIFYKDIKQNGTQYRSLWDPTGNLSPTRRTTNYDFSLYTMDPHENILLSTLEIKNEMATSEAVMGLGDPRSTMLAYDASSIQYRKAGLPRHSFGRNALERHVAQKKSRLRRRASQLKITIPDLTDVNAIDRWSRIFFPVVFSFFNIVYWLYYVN
T1 sequence (P18507 40-475 partner): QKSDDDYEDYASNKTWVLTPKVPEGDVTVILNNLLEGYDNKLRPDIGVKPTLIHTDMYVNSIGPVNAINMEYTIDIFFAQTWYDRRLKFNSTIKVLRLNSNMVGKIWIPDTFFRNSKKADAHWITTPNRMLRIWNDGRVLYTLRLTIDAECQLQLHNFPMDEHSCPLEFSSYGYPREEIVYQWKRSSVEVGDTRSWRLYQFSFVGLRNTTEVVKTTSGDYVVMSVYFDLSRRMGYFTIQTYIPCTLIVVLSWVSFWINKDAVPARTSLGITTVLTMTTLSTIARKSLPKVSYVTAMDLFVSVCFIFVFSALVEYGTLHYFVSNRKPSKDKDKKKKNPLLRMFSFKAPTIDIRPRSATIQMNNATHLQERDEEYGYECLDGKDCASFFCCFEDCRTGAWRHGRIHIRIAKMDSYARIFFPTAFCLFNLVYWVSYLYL

On to `C#C[C@]1(O)CC[C@@]2(C)C(CC[C@@H]3[C@@H]2CC[C@]2(C)/C(=N\O)CC[C@@H]32)C1` (stereo partly drawn) [3α-ethynyl-3β-hydroxyandrostan-17-one oxime], for which, in the test on hyperammonemic rats, the “Spatial memory in the Morris water maze (time to find the platform)” value is given as “completely restored spatial memory”. Besides, the inhibition at 1 µM in test [1] (HEK293, read-out: Inhibition of the THDOC enhancement of GABA) stood at 29 ± 4.7%. In addition, the GAMSA effect is on record as −29 ± 4.7% in test [1] (100 nM THDOC); −3.1±1.7% in test [1] (no THDOC (GABA sole activator)); −3.1 ± 1.7% in test [1] (no THDOC (GABA sole activator), listed as GAMSA).
